Measurements taken from patent publication US20120214802A1, “PYRROLIDINE COMPOUNDS WHICH INHIBIT BETA-SECRETASE ACTIVITY AND METHODS OF USE THEREOF” (priority 2009, published 2012).
Several values for one entry are separate records, joined by “and”; a condition that tells them apart may be missing. Identical values can stand only once. Like-named read-outs stand apart in the source and are kept apart here.

What was measured:
memapsin 2 [1] = molecular target: memapsin 2 (Homo sapiens, UniProt P56817); assay: Inhibition of memapsin 2 beta-secretase activity (fluorogenic substrate FS-2); type: biochemical; conditions: pH 4, 37° C., read-out: M2 Ki
In short: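 Memapsin 2 pre-incubated with compound for 20 min at pH 4, 37° C. Reaction started with fluorogenic substrate FS-2, […], derived from Swedish-variant APP beta-secretase site; inhibition measured from fluorescence.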

memapsin 2 [2] = molecular target: T1, memapsin 2 (Cricetulus griseus, UniProt G3IAK4); assay: Cellular Aβ IC50 determination (Aβ40 sandwich ELISA); type: cell-based, Chinese hamster; conditions: CHO cells over-expressing human APP695 with London and Swedish mutations, 24 h, read-out: M2 IC50
T1 construct: endogenous in cells; host or cells: Chinese hamster ovary cells over-expressing human APP695 (London + Swedish)
In short: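 CHO cells overexpressing human APP695 (London and Swedish mutations) treated 48 h post-seeding with serially diluted compounds (top near 4 μM, 0.4% DMSO), 24 h at 37° C, 5% CO2. Medium Aβ40 measured by sandwich ELISA; levels relative to control fitted to 4-parameter IC50 model.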

CYP3A4 = molecular target: T2, CYP3A4 (Homo sapiens, UniProt P08684); assay: CYP3A4 inhibition (midazolam metabolism in human liver microsomes); type: in vitro ADME; conditions: substrate midazolam
T2 construct: host or cells: human liver microsomes
Description: To evaluate the drug-drug interaction potential for compounds, the potency to inhibit the major metabolic cytochrome CYP450 isoform 3A4 was assessed. The inhibition constant Ki was determined for inhibition of the metabolism of midazolam, a CYP3A4 substrate.
CYP3A4 Ki assays were performed following a recently published protocol with slight modifications (Di, L., Kerns, E. H., Li, S. Q., and Carter, G. T. (2007) Comparison of cytochrome P450 inhibition assays for drug discovery using human liver microsomes with LC-MS, rhCYP450 isozymes with fluorescence, and double cocktail with LC-MS. International Journal of Pharmaceutics 335: 1-11). The P450 inhibition assay was performed in 96-well plates at 37.2° C. in a shaking incubator. The compounds were diluted from 5 mM stocks in 100% DMSO and incubated at seven final concentrations from 0.078 to 10 μM (0.1% DMSO in each final incubation), with human liver microsomes (HLM) at a final protein concentration of 0.1 mg/mL protein and a substrate concentration ranging from 1.25 to 10 μM.
The assay was standardized for both phosphate buffer (100 mM, pH 7.4) and the NADPH regenerating system (MgCl2, 3.3 mM; G6P, 3.3 mM; G6PD, 1 U/ml; NADP+, 1.3 mM). Eight replicate control samples (0.1% DMSO, no compound) were prepared. Assays (200 μL) were set up by mixing HLM+substrate stock, 10 μL of test article in 2% DMSO, and the substrate before initiating the reaction with the addition of the regenerating system mixture. Reactions were quenched following incubation for 20, 30 and 40 minutes as described following.
After incubation for the specified time in a humidified shaking incubator, 20 μL of the reaction mixture was removed and the reactions were terminated by adding 200 μL of cold acetonitrile. Samples were centrifuged at 1000×g for 15 minutes in Solvinert filter plate. The receptor plate was dried via speed vacuum at 40° C. The sample was reconstituted with a reconstitution buffer composed of 10% acetonitrile, 10% DMSO, 80% H2O with an internal standard added at a concentration of 100 ng/ml. MS-Analysis was completed using LC-MS/MS. Formation of 1′-hydroxymidazolam was measured by monitoring a specific SRM (342>203) transition for the CYP3A4 metabolite.
Data were expressed as the relative quantity of midazolam metabolite relative to control incubations. Initial velocities were obtained by multiplying the relative quantity by the initial substrate concentration and dividing by the incubation duration. Data were transformed to inverse of inivital velocity and expressed vs. inhibitor concentration [I] for determination of Ki by the Dixon method (Dixon, M. (1953) Biochemical Journal 55: 170-171) using where intercept [I]=−Ki was determined at multiple substrate concentrations.

[3] = Hepatic intrinsic clearance in liver microsomes; type: in vitro ADME; conditions: human, pH 7.4, human liver microsomes
Description: To 500 μl of 200 mM Na^+K^+phosphate buffer (pH 7.4), 100 μl of 1 mM EDTA solution was added followed by 100 μl of 2 mg protein/ml human liver microsomes. A 10 μl aliquot of test compound (20 mM stock in 50% acetonitrile) was diluted further with 40 μl of H2O (total assay volume […]. Assay mixture is incubated for 5 minutes at 37° C. The assay was initiated by addition of 250 μl of 4 mM NADPH solution. Incubation was continued at 37° C. Separate reaction mixtures were prepared for 0, 5, 10, 20, and 30 min durations. Individual reactions were halted by addition of 150 μl of 100% acetonitrile. Internal standard (10 μl of 100 ng/ml diazepam solution) was added. Concentration of the test compound in each separate reaction was measured using LC/MS/MS and a standard curve for the test compound according to standard procedures.
The hepatic intrinsic clearance in liver microsome was determined by the following procedure described by Davies and Morris (Davies, B. and Morris, T. (19930) Physiological parameters in laboratory animals and humans. Pharm Res. 10:1093-1095) detailing the relationship of in vitro clearance to physiological parameters in animals and human subjects.
The amount of compound remaining at each time point was expressed relative to the amount present in the initial (0 min) incubation. The relationship of relative amount vs. time was used to determine the half life of the compound in the microsome assay. The concentration independent rate constant, k1, was determined from rectangular hyperbolic fit:
where T is time (in minutes), from the relationship of relative amount vs. time. Alternatively, k1 was determined from a transform of the equation, where
Conversion to in vivo clearance was obtained from the relation (Davies and Morris, 1993):
where v=velocity of metabolism, [S] is the concentration of the compound, and volumes are expressed in mL.

[4] = in vitro clearance, read-out: HLM CL
[5] = read-out: hepatic intrinsic clearance in liver microsomes (HLMCL)

Sequence of memapsin 2 (Homo sapiens, UniProt P56817) (P56817 46-501): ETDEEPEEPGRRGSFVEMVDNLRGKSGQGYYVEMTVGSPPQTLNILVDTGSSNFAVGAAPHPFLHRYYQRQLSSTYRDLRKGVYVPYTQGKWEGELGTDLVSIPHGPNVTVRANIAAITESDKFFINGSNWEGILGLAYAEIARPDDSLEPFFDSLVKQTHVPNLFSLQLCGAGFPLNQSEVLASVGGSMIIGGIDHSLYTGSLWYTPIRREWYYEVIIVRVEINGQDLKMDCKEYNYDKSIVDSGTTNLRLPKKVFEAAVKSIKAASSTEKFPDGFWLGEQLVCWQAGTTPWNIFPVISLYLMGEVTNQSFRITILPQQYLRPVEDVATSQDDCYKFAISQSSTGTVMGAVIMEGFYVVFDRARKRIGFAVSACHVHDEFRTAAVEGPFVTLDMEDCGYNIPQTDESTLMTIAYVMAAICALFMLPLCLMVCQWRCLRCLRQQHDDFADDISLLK
T1 sequence (G3IAK4 22-501): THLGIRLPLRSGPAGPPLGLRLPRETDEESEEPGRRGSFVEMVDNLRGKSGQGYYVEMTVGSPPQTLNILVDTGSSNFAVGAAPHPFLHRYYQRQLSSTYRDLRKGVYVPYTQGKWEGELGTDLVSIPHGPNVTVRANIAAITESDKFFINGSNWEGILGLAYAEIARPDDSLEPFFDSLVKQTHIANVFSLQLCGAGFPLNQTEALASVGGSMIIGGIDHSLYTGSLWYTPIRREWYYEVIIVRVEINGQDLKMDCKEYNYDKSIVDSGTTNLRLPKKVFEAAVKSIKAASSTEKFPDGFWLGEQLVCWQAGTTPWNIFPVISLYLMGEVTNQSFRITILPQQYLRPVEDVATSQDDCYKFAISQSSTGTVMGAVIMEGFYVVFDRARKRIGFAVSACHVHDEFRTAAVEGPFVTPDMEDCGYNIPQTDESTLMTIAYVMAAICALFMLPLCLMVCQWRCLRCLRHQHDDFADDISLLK
T2 sequence (P08684 whole entry): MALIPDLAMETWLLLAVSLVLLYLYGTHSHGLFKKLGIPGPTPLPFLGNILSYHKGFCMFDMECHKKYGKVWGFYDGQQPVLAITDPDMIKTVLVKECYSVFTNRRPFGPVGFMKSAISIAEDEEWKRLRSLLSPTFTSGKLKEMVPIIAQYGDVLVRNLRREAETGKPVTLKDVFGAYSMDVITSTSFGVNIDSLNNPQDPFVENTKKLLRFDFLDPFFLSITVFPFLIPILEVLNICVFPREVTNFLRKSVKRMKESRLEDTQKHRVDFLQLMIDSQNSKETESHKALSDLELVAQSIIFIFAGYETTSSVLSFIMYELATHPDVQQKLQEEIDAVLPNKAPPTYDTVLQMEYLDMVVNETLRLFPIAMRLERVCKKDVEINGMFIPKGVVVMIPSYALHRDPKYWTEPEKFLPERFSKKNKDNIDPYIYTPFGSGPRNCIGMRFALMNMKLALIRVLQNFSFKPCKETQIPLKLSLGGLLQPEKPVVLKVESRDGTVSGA

| Structure (SMILES) | Ki (memapsin 2 [1]) | IC50 (memapsin 2 [2]) [nM] | Ki (CYP3A4; read-out: CYP 3A4Ki) [nM] | CLint scaled at 200 μM [3, 4] [mL/min/kg] | Ki (CYP3A4) [nM] | CLint scaled at 200 μM [3, 5] [mL/min/kg] |
| --- | --- | --- | --- | --- | --- | --- |
| Cc1csc([C@H]2CCCN2C(=O)c2cc(C(=O)N[C@@H](Cc3ccccc3)[C@H](O)[C@H]3CCCN3)cc(C(F)F)c2)n1 [1-14, 3-(difluoromethyl)-N-((1R,2S)-1-hydroxy-3-phenyl-1-((R)-pyrrolidin-2-yl)propan-2-yl)-5-((R)-2-(4-methylthiazol-2-yl)pyrrolidine-1-carbonyl)benzamide] | < 250 nM | < 500 | 1000 to 5000 | < 400 |  |  |
| Cc1csc(CN(C)C(=O)c2cc(C(=O)N[C@@H](Cc3ccccc3)[C@H](O)[C@H]3CCCN3)cc(-c3ncco3)c2)n1 [1-15, N1-((1R,2S)-1-hydroxy-3-phenyl-1-((R)-pyrrolidin-2-yl)propan-2-yl)-N3-methyl-N3-((4-methylthiazol-2-yl)methyl)-5-(oxazol-2-yl)isophthalamide] | < 250 nM | < 500 | 5000 to 10000 | < 400 |  |  |
| Cc1csc([C@H]2CCCN2C(=O)c2cc(C(=O)N[C@@H](Cc3ccccc3)[C@H](O)[C@H]3CCCN3)cc(-n3cccc3)c2)n1 [1-16, N-((1R,2S)-1-hydroxy-3-phenyl-1-((R)-pyrrolidin-2-yl)propan-2-yl)-3-((R)-2-(4-methylthiazol-2-yl)pyrrolidine-1-carbonyl)-5-(1H-pyrrol-1-yl)benzamide] | < 250 nM | 500 to 1000 | 1000 to 5000 | < 400 |  |  |
| Cc1coc([C@H]2CCCN2C(=O)c2cc(C(=O)N[C@@H](Cc3ccccc3)[C@H](O)[C@H]3CCCN3)cc(-c3ncco3)c2)n1 [1-17, N-((1R,2S)-1-hydroxy-3-phenyl-1-((R)-pyrrolidin-2-yl)propan-2-yl)-3-((R)-2-(4-methyloxazol-2-yl)pyrrolidine-1-carbonyl)-5-(oxazol-2-yl)benzamide] | < 250 nM | < 500 | > 10000 | < 400 |  |  |
| Cc1coc([C@H]2CCCN2C(=O)c2cccc(C(=O)N[C@@H](Cc3ccccc3)[C@H](O)[C@H]3C[C@@H](OCc4ccccc4)CN3)c2)n1 [1-18, N-((1R,2S)-1-((2R,4R)-4-(benzyloxy)pyrrolidin-2-yl)-1-hydroxy-3-phenylpropan-2-yl)-3-((R)-2-(4-methyloxazol-2-yl)pyrrolidine-1-carbonyl)benzamide] | ~50.4 nM and < 250 nM and 50.4 nM | < 500 | > 10000 | < 400 | 11500 | ~337 |
| Cc1csc([C@H]2CCCN2C(=O)c2cc(F)cc(C(=O)N[C@@H](Cc3ccccc3)[C@H](O)[C@H]3CCCN3)c2)n1 [1-32, 3-fluoro-N-((1R,2S)-1-hydroxy-3-phenyl-1-((R)-pyrrolidin-2-yl)propan-2-yl)-5-((R)-2-(4-methylthiazol-2-yl)pyrrolidine-1-carbonyl)benzamide] | < 250 nM | > 1000 | 5000 to 10000 | < 400 |  |  |
| Cc1csc([C@H]2CCCN2C(=O)c2cccc(C(=O)N[C@@H](Cc3ccccc3)[C@H](O)[C@H]3CCCN3)c2)n1 [1-40, N-((1R,2S)-1-hydroxy-3-phenyl-1-((R)-pyrrolidin-2-yl)propan-2-yl)-3-((R)-2-(4-methylthiazol-2-yl)pyrrolidine-1-carbonyl)benzamide] | < 250 nM | 500 to 1000 | 5000 to 10000 | < 400 |  |  |
| Cc1csc(CN(C)C(=O)c2cccc(C(=O)N[C@@H](Cc3cc(F)cc(F)c3)[C@H](O)[C@H]3CCCN3)c2)n1 [1-41, N1-((1R,2S)-3-(3,5-difluorophenyl)-1-hydroxy-1-((R)-pyrrolidin-2-yl)propan-2-yl)-N3-methyl-N3-((4-methylthiazol-2-yl)methyl)isophthalamide] | < 250 nM | > 1000 | > 10000 | < 400 |  |  |

Next, values leading:

| Ki (memapsin 2 [1]) | IC50 (memapsin 2 [2]) [nM] | Ki (CYP3A4; read-out: CYP 3A4Ki) [nM] | CLint scaled at 200 μM [3, 4] [mL/min/kg] | Ki (CYP3A4) [nM] | CLint scaled at 200 μM [3, 5] [mL/min/kg] | Structure (SMILES) |
| --- | --- | --- | --- | --- | --- | --- |
| < 250 nM | < 500 | < 1000 | > 700 |  |  | Cc1csc([C@H]2CCCN2C(=O)c2cc(C(=O)N[C@@H](Cc3ccccc3)[C@H](O)CNCc3cncc(C(C)C)c3)cc(-c3ccco3)c2)n1 [2-2, 3-(furan-2-yl)-N-((2S,3R)-3-hydroxy-4-((5-isopropylpyridin-3-yl)methylamino)-1-phenylbutan-2-yl)-5-((R)-2-(4-methylthiazol-2-yl)pyrrolidine-1-carbonyl)benzamide, reference compound] |
| < 250 nM | < 500 | < 1000 | > 700 | 717 | > 1000 | Cc1cc(C(=O)N[C@@H](Cc2ccccc2)[C@H](O)CNCc2cncc(C(C)(C)C)c2)cc(C(=O)N2CCC[C@@H]2c2nc(C)co2)c1 [2-3, N-((2S,3R)-4-((5-tert-butylpyridin-3-yl)methylamino)-3-hydroxy-1-phenylbutan-2-yl)-3-methyl-5-((R)-2-(4-methyloxazol-2-yl)pyrrolidine-1-carbonyl)benzamide, reference compound] |
| < 250 nM | < 500 | < 1000 | > 700 |  |  | Cc1coc([C@H]2CCCN2C(=O)c2cccc(C(=O)N[C@@H](Cc3ccccc3)[C@H](O)CNCc3cncc(C(C)(C)C)c3)c2)n1 [2-4, N-((2S,3R)-4-((5-tert-butylpyridin-3-yl)methylamino)-3-hydroxy-1-phenylbutan-2-yl)-3-((R)-2-(4-methyloxazol-2-yl)pyrrolidine-1-carbonyl)benzamide, reference compound] |
| < 250 nM | < 500 | 1000 to 5000 | > 700 |  |  | CCn1cc(CNC[C@@H](O)[C@H](Cc2ccccc2)NC(=O)c2cc(C)cc(C(=O)N3CCC[C@@H]3c3nc(C)co3)c2)cn1 [2-5, N-((2S,3R)-4-((1-ethyl-1H-pyrazol-4-yl)methylamino)-3-hydroxy-1-phenylbutan-2-yl)-3-methyl-5-((R)-2-(4-methyloxazol-2-yl)pyrrolidine-1-carbonyl)benzamide, reference compound] |
